Source: US12264134B2 (Merck Sharp & Dohme LLC, priority 2018, dated 2025)

Molecular target: IDO1 (Homo sapiens, UniProt P14902)
Experiment: IDO1 Cellular Assay in HeLa Cells Stimulated with IFNγ
Format: cell-based
Settings: read-out: HeLa Cell Potency, IC50
Description: IDO1 Cellular Assay in HeLa Cells Stimulated with IFNγ
HeLa cells were cultured in complete HeLa culture medium (90% EMEM, 10% heat-inactivated fetal bovine serum) and expanded to about 1×10^9 cells. The cells were then collected and frozen down at 1×10^7 cells/vial in 1 mL frozen medium (90% complete HeLa culture medium, 10% DMSO).
Compounds to be tested were serially diluted in ten 3-fold steps in DMSO starting from 10 mM DMSO stocks in Echo low volume plate(s). Compound dilutions or DMSO alone were then dispensed from the dilution plate(s) into Greiner black 384-well assay plate(s) (catalog #781086, 50 nL/well) using an Echo 550 acoustic liquid handler (Labcyte).
Frozen HeLa cells were thawed and transferred into HeLa assay medium (99% complete HeLa culture medium, 1% Pen/Strep) with 20 mL medium/vial of cells. The cells were spun down at 250 g in a table top centrifuge for 5 min and suspended in same volume of HeLa assay medium. The cells were then counted and adjusted to a density of 2×10^5 cells/mL in HeLa assay medium. Sterile L-tryptophan were added to the cells with final concentration of 300 uM L-tryptophan. A small aliquot (2 mL/plate) of HeLa cells were set aside and were not treated with IFNγ, to serve as the Max-E control.
HeLa cells with and without IFNγ were dispensed to the respective wells of 384-well assay plates containing the compounds. The plates were incubated for about 48 hours at a 37° C., 5% CO2 incubator. Afterwards, 12 μL of 0.5 M methyl isonipecotate in dimethyl sulfoxide were added into each well and the plates were sealed and incubated at 37° C. without CO2 overnight. The plates were centrifuged for 1 min at 200×g. The resulting fluorescence was measured in a Spectramax plate reader (Molecular Devices) with a 400 nm excitation filter and a 510 nm emission filter.
The fluorescence intensity of each well was corrected for the background observed in wells with non-IFNγ-treated cells and was expressed as a fraction of the intensity observed in wells of IFNγ-treated cells and DMSO only. Potencies were calculated by linear least squares fit to the four parameter logistic IC50 equation.

Sequence of IDO1 (P14902 whole entry): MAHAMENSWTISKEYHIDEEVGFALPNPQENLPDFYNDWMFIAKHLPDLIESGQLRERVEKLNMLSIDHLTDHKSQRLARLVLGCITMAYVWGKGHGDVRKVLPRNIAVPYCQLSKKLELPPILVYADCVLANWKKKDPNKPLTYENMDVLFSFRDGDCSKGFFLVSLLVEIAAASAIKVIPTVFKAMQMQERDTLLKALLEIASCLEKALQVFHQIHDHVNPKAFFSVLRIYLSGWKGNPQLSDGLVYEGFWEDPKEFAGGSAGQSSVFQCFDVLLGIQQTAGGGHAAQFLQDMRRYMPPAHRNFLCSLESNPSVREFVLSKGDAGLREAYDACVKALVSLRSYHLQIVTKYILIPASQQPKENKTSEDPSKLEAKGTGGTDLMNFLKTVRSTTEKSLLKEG

Compound	IC50 [nM]
1-(2-(difluoromethyl)-4-(2,3-dimethylphenyl)piperazin-1-yl)-2-((3bR,4aR)-3-(4-hydroxypiperidine-1-carbonyl)-3b,4,4a,5-tetrahydro-1H-cyclopropa[3,4]cyclopenta[1,2-c]pyrazol-1-yl)ethanone [Example 387]	205
Cc1cccc(N2CCN(C(=O)Cn3nc(C(=O)N4CC[C@H](O)[C@H](F)C4)c4c3CCC4C(F)F)CC2)c1C (mixture of isomers) [Example 19, 2-[rac-4-(difluoromethyl)-3-[(3R,4S)-3-fluoro-4-hydroxy-piperidine-1-carbonyl]-5,6-dihydro-4H-cyclopenta[c]pyrazol-1-yl]-1-[4-(2,3-dimethylphenyl)piperazin-1-yl]ethanone]	113
Cc1cccc(N2CCN(C(=O)Cn3nc(C(=O)N4CC[C@@H](O)[C@@H](F)C4)c4c3CC(F)C4)CC2)c1C (mixture of isomers) [Example 417, 1-(4-(2,3-dimethylphenyl)piperazin-1-yl)-2-(5-fluoro-3-((3S,4R)-3-fluoro-4-hydroxypiperidine-1-carbonyl)-5,6-dihydrocyclopenta[c]pyrazol-1(4H)-yl)ethan-1-one]	27
Cc1cccc(N2CCN(C(=O)Cn3nc(C(=O)N4CC[C@@H](O)[C@@H](F)C4)c4c3C(O)CC4)CC2)c1C (mixture of isomers) [Example 421, 1-(4-(2,3-dimethylphenyl)piperazin-1-yl)-2-(3-((3S,4R)-3-fluoro-4-hydroxypiperidine-1-carbonyl)-6-hydroxy-5,6-dihydrocyclopenta[c]pyrazol-1(4H)-yl)ethanone]	692
O=C(Cn1nc(C(=O)N2CC[C@H](O)[C@H](F)C2)c2c1CCC2)N1CCN(C2CCc3ccccc32)CC1 (mixture of isomers) [Example 438, 1-(4-(2,3-dihydro-1H-inden-1-yl)piperazin-1-yl)-2-(3-((3R,4S)-3-fluoro-4-hydroxypiperidine-1-carbonyl)-5,6-dihydrocyclopenta[c]pyrazol-1(4H)-yl)ethanone]	1590
Cc1cccc(N2CCN(C(=O)Cn3nc(C(=O)N4CCC(O)CC4)c4c3CCC4C(F)F)CC2)c1C (racemic) [Example 18, 2-[rac-4-(difluoromethyl)-3-(4-hydroxypiperidine-1-carbonyl)-5,6-dihydro-4H-cyclopenta[c]pyrazol-1-yl]-1-[4-(2,3-dimethylphenyl)piperazin-1-yl]ethanone]	92.4
Cc1cccc(N2CCN(C(=O)Cn3nc(C(=O)N4CC[C@H](F)[C@@H](O)C4)c4c3CCC4)CC2)c1C (racemic) [Example 208, 1-[4-(2,3-dimethylphenyl)piperazin-1-yl]-2-[3-[rac-(3S,4S)-4-fluoro-3-hydroxy-piperidine-1-carbony]-5,6-dihydro-4H-cyclopenta[c]pyrazol-1-yl]ethanone]	30.9
Cc1cccc(N2CCN(C(=O)Cn3nc(C(=O)N4CC[C@H](O)[C@H](F)C4)c4c3C[C@H]3C[C@@H]43)[C@H]3CCC[C@@H]32)c1C (racemic) [Example 327, 1-[rac-(4aS,7aS or 4aR,7aR)-1-(2,3-dimethylphenyl)-3,4a,5,6,7,7a-hexahydro-2H-cyclopenta[b]pyrazin-4-yl]-2-[(2R,4R)-9-[(3R,4S)-3-fluoro-4-hydroxy-piperidine-1-carbonyl]-7,8-diazatricyclo[4.3.0.02,4]nona-1(6),8-dien-7-yl]ethanone]	17.1
Cc1cccc(N2CCN(C(=O)Cn3nc(C(=O)N4CC[C@H](O)[C@@H](F)C4)c4c3CC(O)C4)CC2)c1C (mixture of isomers) [Example 414, 1-(4-(2,3-dimethylphenyl)piperazin-1-yl)-2-(3-((3 S,4S)-3-fluoro-4-hydroxypiperidine-1-carbonyl)-5-hydroxy-5,6-dihydrocyclopenta[c]pyrazol-1 (4H)-yl)ethanone]	381
Cc1cccc(N2CCN(C(=O)Cn3nc(C(=O)N4CC[C@H](O)[C@H](F)C4)c4c3CC(C(F)F)C4)CC2)c1C (single isomer, unassigned) [Example 12]	13.2
Cc1cccc(N2CCN(C(=O)Cn3nc(C(=O)N4CCC(OCCO)CC4)c4c3CCC4C(F)F)CC2)c1C (single isomer, unassigned) [Example 13, 2-[4-(difluoromethyl)-3-[4-(2-hydroxyethoxy)piperidine-1-carbonyl]-5,6-dihydro-4H-cyclopenta[c]pyrazol-1-yl]-1-[4-(2,3-dimethylphenyl)piperazin-1-yl]ethanone]	31
Cc1cccc(N2CCN(C(=O)Cn3nc(C(=O)N4CC[C@H](O)[C@H](F)C4)c4c3CCC4C(F)F)CC2)c1C (single isomer, unassigned) [Example 14]	43.8
Cc1cccc(N2CCN(C(=O)Cn3nc(C(=O)N4CCC(O)CC4)c4c3CCC4C(F)F)CC2)c1C (single isomer, unassigned) [Example 15, 2-[4-(difluoromethyl)-3-(4-hydroxypiperidine-1-carbonyl)-5,6-dihydro-4H-cyclopenta[c]pyrazol-1-yl]-1-[4-(2,3-dimethylphenyl)piperazin-1-yl]ethanone]	19.9
Cc1cccc(N2CCN(C(=O)Cn3nc(C(=O)N4CC[C@H](O)[C@H](F)C4)c4c3C(O)CCC4)CC2)c1C (single isomer, unassigned) [Example 25]	496
Cc1cccc(N2CCN(C(=O)Cn3nc(C(=O)N4CC[C@@H](N)C(F)(F)C4)c4c3CCC4)CC2)c1C (single isomer, unassigned) [Example 206, [(4R or 4S)-1-[1-[2-[4-(2,3-dimethylphenyl)piperazin-1-yl]-2-oxo-ethyl]-5,6-dihydro-4H-cyclopenta[c]pyrazole-3-carbonyl]-3,3-difluoro-4-piperidyl]ammonium;2,2,2-trifluoroacetate]	27.9
Cc1cccc(N2CCN(C(=O)Cn3nc(C(=O)N4CC[C@H](N)C(F)(F)C4)c4c3CCC4)CC2)c1C (single isomer, unassigned) [Example 209, [(4S or 4R)-1-[1-[2-[4-(2,3-dimethylphenyl)piperazin-1-yl]-2-oxo-ethyl]-5,6-dihydro-4H-cyclopenta[c]pyrazole-3-carbonyl]-3,3-difluoro-4-piperidyl]ammonium;2,2,2-trifluoroactate]	36.8
Cc1cccc(N2CCN(C(=O)Cn3nc(C(=O)N4CCC(F)(F)[C@H](O)C4)c4c3CCC4)CC2)c1C (single isomer, unassigned) [Example 210, 2-[3-[(3R or 3S)-4,4-difluoro-3-hydroxy-piperidine-1-carbonyl]-5,6-dihydro-4H-cyclopenta[c]pyrazol-1-yl]-1-[4-(2,3-dimethylphenyl)piperazin-1-yl]ethanone]	63.5
Cc1cccc(N2CCN(C(=O)Cn3nc(C(=O)N4CCC(F)(F)[C@@H](O)C4)c4c3CCC4)CC2)c1C (single isomer, unassigned) [Example 213, 2-[3-[(3S or 3R)-4,4-difluoro-3-hydroxy-piperidine-1-carbonyl]-5,6-dihydro-4H-cyclopenta[c]pyrazol-1-yl]-1-[4-(2,3-dimethylphenyl)piperazin-1-yl]ethanone]	90.9
Cc1cccc(N2CCN(C(=O)Cn3nc(C(=O)N4CCC(O)CC4)c4c3C[C@H]3C[C@@H]43)C(C(F)F)C2)c1C (single isomer, unassigned) [Example 386]	14
Cc1cccc(N2CCN(C(=O)Cn3nc(C(=O)N4CC[C@H](O)[C@@H](F)C4)c4c3CC(O)C4)CC2)c1C (single isomer, unassigned) [Example 415]	341
Cc1cccc(N2CCN(C(=O)Cn3nc(C(=O)N4CC[C@H](O)[C@@H](F)C4)c4c3CC(O)C4)CC2)c1C (single isomer, unassigned) [Example 416]	75.7
Cc1cccc(N2CCN(C(=O)Cn3nc(C(=O)N4CC[C@@H](O)[C@@H](F)C4)c4c3C(O)CC4)CC2)c1C (single isomer, unassigned) [Example 422]	2950
Cc1cccc(N2CCN(C(=O)Cn3nc(C(=O)N4CC[C@@H](O)[C@@H](F)C4)c4c3C(O)CC4)CC2)c1C (single isomer, unassigned) [Example 423]	195
O=C(Cn1nc(C(=O)N2CC[C@H](O)[C@H](F)C2)c2c1CCC2)N1CCN(C2CCCc3ccccc32)CC1 (single isomer, unassigned) [Example 426]	302
O=C(Cn1nc(C(=O)N2CC[C@H](O)[C@H](F)C2)c2c1CCC2)N1CCN(C2CCCc3ccccc32)CC1 (single isomer, unassigned) [Example 427]	> 10000
O=C(Cn1nc(C(=O)N2CCC(O)CC2)c2c1CCC2)N1CCN(C2CCCc3ccccc32)CC1 (single isomer, unassigned) [Example 429]	183
O=C(Cn1nc(C(=O)N2CCC(O)CC2)c2c1CCC2)N1CCN(C2CCCc3ccccc32)CC1 (single isomer, unassigned) [Example 430]	184
O=C(Cn1nc(C(=O)N2CCC(O)CC2)c2c1CCC2)N1CCN(C2CCCc3ccccc32)CC1 (single isomer, unassigned) [Example 431]	3440
